Test results as given in patent publication US20220331341A1, “TREATMENT COMPRISING THE USE OF FXR AGONISTS” (Novartis AG, priority 2019, published 2022).

What was measured:
[1] = system: patients with biopsy-proven NASH and fibrosis stages 2-3; test: FLIGHT-FXR (NCT02855164) Part C interim analysis at week 12; format: in vivo, human; conditions: for ALT, LS mean absolute change from baseline to Week 12 (SE) / Body weight, LS mean absolute change from baseline to Week 12 (SE) / GGT, LS mean absolute change from baseline to Week 12 (SE): full analysis set
Excerpt: Prespecified endpoints assessed at week 12 included overall safety and changes in alanine aminotransferase (ALT), hepatic fat fraction (HFF), gamma glutamyl transferase (GGT), and body weight.

[2] = system: HF/NASH mice (hepatic oxidative stress and mitochondrial function); test: Dietary HF/NASH mouse model, tropifexor treatment for the last 12 of 20 weeks; format: in vivo, C57BL/6J mice
Excerpt: Molecular, structural and functional analysis was applied to assess oxidative stress and mitochondria function in NASH model.
Similar to human disease, transition from steatosis to NASH with fibrosis in NASH mice is associated with mitochondrial dysfunction characterized by structural and functional alterations. Decline in hepatic mitochondrial function is manifested in HF/NASH mice by decreased activities of tricarboxylic acid (TCA) cycle and electron transport chain (ETC) as well as diminished ATP production. This is accompanied by oxidative damage and depletion of antioxidant enzymes. […] This was manifested by a marked increase in mitochondrial function with concomitant restoration of oxidative balance associated with increased antioxidant defenses and decreased oxidative stress.

NASH patients = test: Study CLJN452A2202 Parts A and B, 12 weeks; format: in vivo, human

With `O=C(O)c1cc(F)c2nc(N3C4CC[C@H]3CC(OCc3c(-c5ccccc5OC(F)(F)F)noc3C3CC3)C4)sc2c1` (stereo partly drawn) [Tropifexor, 2-[(1R,3r,5S)-3-({5-cyclopropyl-3-[2-(trifluoromethoxy)phenyl]-1,2-oxazol-4-yl}methoxy)-8-azabicyclo[3.2.1]octan-8-yl]-4-fluoro-1,3-benzothiazole-6-carboxylic acid] the “Frequency of serious adverse events” value ([1]; 140 μg and 200 μg vs placebo) was “low and comparable across groups”, the “Low density lipoprotein-cholesterol (LDL-C)” value ([1]; 140 μg and 200 μg, 12 weeks) was “dose-related increase” and the “Share of patients with pruritus whose events were of mild (Grade 1) severity” value ([1]; both Tropifexor groups (140 μg and 200 μg)) was over 60%. The “Treatment discontinuation rate due to pruritus” value ([1]; tropifexor 140 μg) was 2%, the “ALT, LS mean absolute change from baseline to Week 12 (SE)” value ([1]; tropifexor 140 μg once daily) was −20.1 (4.57) U/L and the “Body weight, LS mean absolute change from baseline to Week 12 (SE)” value ([1]; tropifexor 140 μg once daily) was −2.46 (0.38) kg. The “GGT, LS mean absolute change from baseline to Week 12 (SE)” value ([1]; tropifexor 140 μg once daily) was −39.2 (3.70) U/L, the “Prespecified endpoints at week 12” value ([1]; tropifexor 200 μg) was “met” and the “Treatment discontinuation rate due to pruritus” value ([1]; tropifexor 200 μg) was 6%. The “ALT, LS mean absolute change from baseline to Week 12 (SE)” value ([1]; tropifexor 200 μg once daily) was −23.6 (4.48) U/L, the “Body weight, LS mean absolute change from baseline to Week 12 (SE)” value ([1]; tropifexor 200 μg once daily) was −3.20 (0.37) kg and the “GGT, LS mean absolute change from baseline to Week 12 (SE)” value ([1]; tropifexor 200 μg once daily) was −40.9 (3.62) U/L. The “Liver SOD activity” value ([2]; 0.3 mg/kg) was “fully restored”, the “GPx activity in serum and liver” value ([2]; 0.9 mg/kg) was “restored” and the “Liver SOD activity” value ([2]; 0.9 mg/kg) was “increased above the levels observed in ND mice”. The “Cell death (apoptosis) in liver: cleaved-caspase 3 staining and phospho-p38 protein levels” value ([2]; 20 weeks HF/NASH diet) was “attenuated cell death in a dose dependent manner”, the ATP synthesis ([2]; HF/NASH livers) was “improving” and the “Citrate synthase (CS) activity” value ([2]; HF/NASH livers) was “dose-dependently restored”. The “Complex I and Complex II activities” value ([2]; HF/NASH livers) was “restoring”, the “Content of all five respiratory chain (OXPHOS) proteins” value ([2]; HF/NASH livers, 0.1 mg/kg) was “full restoration” and the “Expression of mitochondrial biogenesis genes (PGC-1a, Nrf1, Tfam)” value ([2]; HF/NASH mice) was “did not lead to changes”. The “Levels of oxidative stress in HF/NASH livers (MDA, 4-HNE, mtDNA)” value ([2]; liver) was “markedly decreased”, the “Antioxidant gene expression (GPx and GST superfamilies)” value ([2]; liver transcriptome) was “induced” and the “Expression of Gpx2, Gst family” value ([2]; liver transcriptome) was “markedly increased their expression beyond the ND levels”. For the same molecule, the “Expression of Gpx3, Gpx8” value ([2]; liver transcriptome) was “restored expression of investigated genes to ND levels”, the “Serum levels of γ-glutamyltranspeptidase (GGT)” value ([2]; serum) was “decreased” and the “Biologic activity (GGT)” value (NASH patients; 10 to 90 μg daily for 12 weeks) was “clear dose response”. The “Target engagement (FGF19)” value (NASH patients; 10 to 90 μg daily for 12 weeks) was “clear dose response”, the “ALT and hepatic fat fraction compared to placebo” value (NASH patients; all doses (10, 30, 60 and 90 μg), 12 weeks) was “reduced” and the Tolerability (NASH patients; up to 90 μg daily) was “generally well tolerated”.
